# Source: US10378058B2, “Diagnostic and therapeutic methods and compositions involving PTEN and breast cancer” (Board of Regents of The University of Texas System, priority 2003, dated 2019)
# Entries after “also recorded” stand apart in the source; their conditions may differ.
# Experiments:
# Src = target: T1, Src (Homo sapiens, UniProt P12931); experiment: Src-Y416 phosphorylation in 435.eB cells; type: cell-based; conditions: vs solvent 10% DMSO
# T1 construct: endogenous in cells; host or cells: 435.eB cells
# Experimental: (§1) Preparation of Cell Lysates, Immunoprecipitation, and Western Blot Analysis. Cells at 70%-80% confluence were treated with each reagent indicated in the individual experiments. For PTEN phosphotyrosine immunoblots, ErbB2 IP, and Src IP, cells were treated with 30 mM pervanadate for 10 min as described (Lu et al., 2003). Unless noted, cells were washed with PBS and lysed in IP buffer with protease inhibitor cocktail (Sigma Chemical Co., St. Louis, Mo.). Immunoprecipitation and Western blot analysis were performed (Yu et al., 1998).
# PTEN [1] = experiment: PTEN tyrosine phosphorylation in 435.eB cells; type: cell-based; conditions: vs solvent 10% DMSO
# Experimental: as §1
# BT474 cells = experiment: Cell viability assay of BT474 cells; type: cell-based, human; conditions: paclitaxel alone without trastuzumab
# Experimental: (§2) Cell viability assay. Cells were seeded at 1-5×10^3 cells/well in 96-well plates after oligonucleotide transfection. Viable cells were determined by CellTiter 96 AQueous Non-Radioactive Cell Proliferation Assay (Promega, Madison, Wis.).
# PTEN [2] = experiment: PTEN expression after antisense transfection in vitro; type: cell-based, human; conditions: SKBr3 cells, 25 nM, vs mock or mismatched (MIS) oligonucleotides
# Experimental: Antisense Delivery in vitro. Antisense oligonucleotides against PTEN (ISIS116847: 5′-[…]-3′) (SEQ ID NO:3) and control oligonucleotides (ISIS 116848: 5′-[…]-3′ (SEQ ID NO:4), with six base mismatches to ISIS 116847) have been described (Butler et al., 2002). Cells were plated in 100-mm dishes at 30% confluence and transfected with oligonucleotides (12.5 nM for BT474 and 25 nM for SKBr3 cells) twice using Oligofectamine (Life Technologies, Rockville, Md.) 24 and 72 h post-plating. Ninety-six hours post-plating, cells were re-plated for individual assays described in this report. PTEN expression was determined 120 h post-plating (FIG. 2A).
# as §1
# SKBr3 cells = experiment: Cell proliferation of SKBr3 cells (MTS assay); type: cell-based, human; conditions: PTEN AS alone without trastuzumab, vs MIS
# Experimental: as §2
# PTEN [3] = experiment: PTEN expression in BT474 xenografts injected with oligonucleotides; type: in vivo, mice; conditions: intratumor injection 15 μg/injection twice a week for 1 week, ErbB2 expression remained the same
# Experimental: Animal experiment. Female athymic nude mice (Harlan Sprague Dawley, Indianapolis, Ind.) were implanted with 0.72-mg 60-day-release 17β-estradiol pellets (Innovative Research, Sarasota, Fla.) and irradiated at 3.5 Gy prior to inoculation. BT474 cells (8×10^6) in 200 μl of PBS and Matrigel (BD Biosciences, Bedford, Mass.) mixture (1:1 ratio) were injected subcutaneously into a mouse mammary fat pad (mfp). When the mfp tumor volume reached >150 mm^3, the tumor was treated with PTEN antisense or control mismatched oligonucleotides (30 μg/week) in saline. […] Tumor diameters were serially measured with calipers and tumor volumes calculated: volume=width^2×length/2. Each treatment group contained 8-12 mice. Unpaired Student's t-test was used to assess statistical significance.
# T1 sequence (P12931 whole entry): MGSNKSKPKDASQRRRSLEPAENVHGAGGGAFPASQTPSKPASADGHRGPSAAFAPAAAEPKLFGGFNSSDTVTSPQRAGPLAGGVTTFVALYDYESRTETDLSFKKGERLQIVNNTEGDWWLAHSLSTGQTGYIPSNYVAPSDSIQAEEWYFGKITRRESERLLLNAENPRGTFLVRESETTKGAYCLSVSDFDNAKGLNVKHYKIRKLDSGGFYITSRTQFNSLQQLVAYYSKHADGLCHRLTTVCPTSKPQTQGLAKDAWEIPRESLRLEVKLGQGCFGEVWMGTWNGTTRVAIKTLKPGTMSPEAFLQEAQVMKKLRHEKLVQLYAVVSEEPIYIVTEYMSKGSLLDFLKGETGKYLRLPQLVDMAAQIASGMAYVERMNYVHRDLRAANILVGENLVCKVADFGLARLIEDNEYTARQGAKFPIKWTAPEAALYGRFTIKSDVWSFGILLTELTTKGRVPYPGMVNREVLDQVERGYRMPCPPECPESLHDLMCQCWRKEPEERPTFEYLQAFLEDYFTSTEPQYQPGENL
compound,measurement,setting,value
CC(C)(C)n1nc(-c2ccc(Cl)cc2)c2c(N)ncnc21 [PP2],Src phosphorylation on Y416,Src,effectively inhibited Src phosphorylation on Y416
same,tyrosine phosphorylation of PTEN,PTEN [1],dramatically reduced tyrosine phosphorylation of PTEN
CC(=O)O[C@H]1C(=O)[C@@]2(C)[C@H]([C@H](OC(=O)c3ccccc3)[C@]3(O)C[C@H](OC(=O)[C@H](O)[C@@H](NC(=O)c4ccccc4)c4ccccc4)C(C)=C1C3(C)C)[C@]1(OC(C)=O)CO[C@@H]1C[C@@H]2O [paclitaxel],"cell viability, PTEN AS-transfected vs MIS control-transfected cells",BT474 cells,no statistically significant difference in cell viability
"PTEN AS: Antisense oligonucleotides against PTEN, 5′-CTGCTAGCCTCTGGATTTGA-3′ (SEQ ID NO:3) (listed as DNA, chemistry not given here)",endogenous PTEN expression,PTEN [2],inhibited endogenous PTEN expression; also recorded: reduced
same,cell proliferation,SKBr3 cells,no significant effect on cell proliferation
same,PTEN expression in tumor xenografts,PTEN [3],effectively inhibited; also recorded: reduced
